Test results published in patent publication US7659404B2, “Broad spectrum 2-(substituted-amino)-benzothiazole sulfonamide HIV protease inhibitors” (Tibotec Pharmaceuticals Ltd., priority 2001, dated 2010).

What was measured:
[1] = test system: clinically isolated HIV strain Q; test: Antiviral spectrum, cellular assay (fold resistance), strain Q; assay type: cell-based; settings: FR=EC50(mutant strain)/EC50(HIV-1 strain LAI)
Description: (§1) HIV- or mock-infected MT4 cells were incubated for five days in the presence of various concentrations of the inhibitor. At the end of the incubation period, all HIV-infected cells have been killed by the replicating virus in the control cultures in the absence of any inhibitor. Cell viability is measured by measuring the concentration of MTT, a yellow, water soluble tetrazolium dye that is converted to a purple, water insoluble formazan in the mitochondria of living cells only. Upon solubilization of the resulting formazan crystals with isopropanol, the absorbance of the solution is monitored at 540 nm. The values correlate directly to the number of living cells remaining in the culture at the completion of the five day incubation. The inhibitory activity of the compound was monitored on the virus-infected cells and was expressed as EC50 and EC90. These values represent the amount of the compound required to protect 50% and 90%, respectively, of the cells from the cytopathogenic effect of the virus. The toxicity of the compound was measured on the mock-infected cells and was expressed as CC50, which represents the concentration of compound required to inhibit the growth of the cells by 50%. The selectivity index (SI) (ratio CC50/EC50) is an indication of the selectivity of the anti-HIV activity of the inhibitor.
(§2) Because of the increasing emergence of drug resistant HIV strains, the present compounds were tested for their potency against clinically isolated HIV strains harboring several mutations. These mutations are associated with resistance to protease inhibitors and result in viruses that show various degrees of phenotypic cross-resistance to the currently commercially available drugs such as for instance saquinavir, ritonavir, nelfinavir, indinavir and amprenavir.
(§3) As a measure of the broad spectrum activity of the present compounds, the fold resistance (FR) defined as FR=EC50(mutant strain)/EC50(HIV-1 strain LAI).

[2] = test system: clinically isolated HIV strain G; test: Antiviral spectrum, cellular assay (fold resistance), strain G; assay type: cell-based; settings: FR=EC50(mutant strain)/EC50(HIV-1 strain LAI)
Description: as §1, §2, §3

[3] = test system: clinically isolated HIV strain C; test: Antiviral spectrum, cellular assay (fold resistance), strain C; assay type: cell-based; settings: FR=EC50(mutant strain)/EC50(HIV-1 strain LAI)
Description: as §1, §2, §3

[4] = test system: clinically isolated HIV strain I; assay type: cell-based; settings: FR=EC50(mutant strain)/EC50(HIV-1 strain LAI)
Outline: (§4)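 First, MT4 cells were infected with HIV (or mock-infected) and incubated five days with varying inhibitor concentrations. Next, living cells were quantified via MTT reduction, measuring absorbance at 540 nm. Finally, EC50 was derived and fold resistance calculated relative to HIV-1 strain LAI.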

[5] = test system: clinically isolated HIV strain T; assay type: cell-based; settings: FR=EC50(mutant strain)/EC50(HIV-1 strain LAI)
Outline: as §4

[6] = test system: clinically isolated HIV strain J; assay type: cell-based; settings: FR=EC50(mutant strain)/EC50(HIV-1 strain LAI)
Outline: as §4

[7] = test system: clinically isolated HIV strain H; assay type: cell-based; settings: FR=EC50(mutant strain)/EC50(HIV-1 strain LAI)
Outline: as §4

[8] = test system: clinically isolated HIV strain O; assay type: cell-based; settings: FR=EC50(mutant strain)/EC50(HIV-1 strain LAI)
Outline: as §4

[9] = test system: clinically isolated HIV strain R; test: Antiviral spectrum, cellular assay (fold resistance), strain R; assay type: cell-based; settings: FR=EC50(mutant strain)/EC50(HIV-1 strain LAI)
Description: as §1, §2, §3

[10] = test system: clinically isolated HIV strain B; test: Antiviral spectrum, cellular assay (fold resistance), strain B; assay type: cell-based; settings: FR=EC50(mutant strain)/EC50(HIV-1 strain LAI)
Description: as §1, §2, §3

virus strain S (R13080) = test: microbe, parasite or virus in culture; assay type: cell-based, HIV; settings: FR=EC50(mutant strain)/EC50(HIV-1 strain LAI); strain S
Outline: as §4

virus strain F (R13025) = test: microbe, parasite or virus in culture; assay type: cell-based, HIV; settings: FR=EC50(mutant strain)/EC50(HIV-1 strain LAI); strain F
Outline: as §4

[11] = test system: clinically isolated HIV strain E; test: Antiviral spectrum, cellular assay (fold resistance), strain E; assay type: cell-based; settings: FR=EC50(mutant strain)/EC50(HIV-1 strain LAI)
Description: as §1, §2, §3

[12] = test system: clinically isolated HIV strain A; test: Antiviral spectrum, cellular assay (fold resistance), strain A; assay type: cell-based; settings: FR=EC50(mutant strain)/EC50(HIV-1 strain LAI)
Description: as §1, §2, §3

[13] = test system: clinically isolated HIV strain P; test: Antiviral spectrum, cellular assay (fold resistance), strain P; assay type: cell-based; settings: FR=EC50(mutant strain)/EC50(HIV-1 strain LAI)
Description: as §1, §2, §3

[14] = test system: clinically isolated HIV strain K; test: Antiviral spectrum, cellular assay (fold resistance), strain K; assay type: cell-based; settings: FR=EC50(mutant strain)/EC50(HIV-1 strain LAI)
Description: as §1, §2, §3

[15] = test system: clinically isolated HIV strain N; test: Antiviral spectrum, cellular assay (fold resistance), strain N; assay type: cell-based; settings: FR=EC50(mutant strain)/EC50(HIV-1 strain LAI)
Description: as §1, §2, §3

[16] = test system: clinically isolated HIV strain L; test: Antiviral spectrum, cellular assay (fold resistance), strain L; assay type: cell-based; settings: FR=EC50(mutant strain)/EC50(HIV-1 strain LAI)
Description: as §1, §2, §3

[17] = test system: clinically isolated HIV strain D; test: Antiviral spectrum, cellular assay (fold resistance), strain D; assay type: cell-based; settings: FR=EC50(mutant strain)/EC50(HIV-1 strain LAI)
Description: as §1, §2, §3

[18] = test system: clinically isolated HIV strain M; test: Antiviral spectrum, cellular assay (fold resistance), strain M; assay type: cell-based; settings: FR=EC50(mutant strain)/EC50(HIV-1 strain LAI)
Description: as §1, §2, §3

SMILES | fold resistance (FR), strain Q [1] | fold resistance (FR), strain G [2] | fold resistance (FR), strain C [3] | fold resistance (FR), strain I [4] | fold resistance (FR), strain T [5] | fold resistance (FR), strain J [6] | fold resistance (FR), strain H [7] | fold resistance (FR), strain O [8] | fold resistance (FR), strain R [9] | fold resistance (FR), strain B [10] | fold resistance (FR), strain S (virus strain S (R13080)) | fold resistance (FR), strain F (virus strain F (R13025)) | fold resistance (FR), strain E [11] | fold resistance (FR), strain A [12] | fold resistance (FR), strain P [13] | fold resistance (FR), strain K [14] | fold resistance (FR), strain N [15] | fold resistance (FR), strain L [16] | fold resistance (FR), strain D [17] | fold resistance (FR), strain M [18]
CC(C)CN(CC(O)C(Cc1ccccc1)NC(=O)OC1COC2OCCC12)S(=O)(=O)c1ccc2nc(NC(=O)CN3CCCC3)sc2c1 (mixture of isomers) [Compound 7] | 0.4 | 0.2 | 0.5 | 0.5 | 12.4 | 0.4 | 0.5 | 0.4 | 0.4 | 0.3 | 2.0 | 0.5 | 0.3 | 0.2 | 0.1 | 0.3 | 0.5 | 0.1 | 0.5 | 0.1
CC(=O)N(C)c1nc2ccc(S(=O)(=O)N(CC(C)C)CC(O)C(Cc3ccccc3)NC(=O)OC3COC4OCCC34)cc2s1 (mixture of isomers) [Compound 9] | 1.8 | 1.5 | 1.6 | 2.3 | 550.9 | 6.2 | 6.7 | 3.7 | 1.2 | 1.5 | 29.3 | 13.0 | 2.3 | 1.5 | 0.2 | 1.0 | 1.5 | 0.7 | 5.7 | 0.5
CC(C)CN(CC(O)C(Cc1ccccc1)NC(=O)OC1COC2OCCC12)S(=O)(=O)c1ccc2nc(NC(=O)CN3CCOCC3)sc2c1 (mixture of isomers) [Compound 10] | 0.3 | 0.5 | 0.6 | 0.4 | 4.9 | 0.3 | 0.4 | 0.4 | 0.3 | 0.4 | 0.5 | 0.5 | 0.4 | 0.4 | 0.3 | 0.3 | 0.0 | 0.2 | 0.5 | 0.3
CC(C)CN(C[C@@H](O)[C@H](Cc1ccccc1)NC(=O)O[C@H]1CO[C@H]2OCC[C@H]21)S(=O)(=O)c1ccc2nc(NC(=O)CN3CCCC3)sc2c1.O=C(O)/C=C/C(=O)O [Compound 13] | 0.4 | 0.2 | 0.2 | 0.3 | 5.8 | 0.2 | 0.6 | 0.3 | 0.2 | 0.2 | 1.0 | 0.6 | 0.2 | 0.2 | 0.2 | 0.2 | 1.0 | 0.1 | 0.2 | 0.2
CC(C)CN(C[C@@H](O)[C@H](Cc1ccccc1)NC(=O)O[C@H]1CO[C@H]2OCC[C@H]21)S(=O)(=O)c1ccc2nc(NC(=O)CN3CCCC3)sc2c1.Cl [Compound 14] | 0.3 | 0.2 | 0.2 | 0.4 | 5.9 | 0.3 | 0.5 | 0.3 | 0.2 | 0.2 | 0.7 | 0.4 | 0.3 | 0.2 | 0.2 | 0.2 | 0.9 | 0.1 | 0.2 | 0.2
CC(C)CN(C[C@@H](O)[C@H](Cc1ccccc1)NC(=O)O[C@H]1CO[C@H]2OCC[C@H]21)S(=O)(=O)c1ccc2nc(NC(=O)CN3CCCC3)sc2c1.O=C(O)C(=O)O [Compound 15] | 0.2 | 0.3 | 0.3 | 0.3 | 7.2 | 0.3 | 0.5 | 0.2 | 0.2 | 0.2 | 0.8 | 0.5 | 0.3 | 0.3 | 0.1 | 0.3 | 0.4 | 0.1 | 0.3 | 0.2
